This passage reports IC50 results from patent US10301291B2, “Imidazole derivative having JNK inhibitory activity and use thereof” (SAMJIN PHARMACEUTICAL CO., LTD., priority 2016, dated 2019).

JNK3, sequence (P53779 whole entry): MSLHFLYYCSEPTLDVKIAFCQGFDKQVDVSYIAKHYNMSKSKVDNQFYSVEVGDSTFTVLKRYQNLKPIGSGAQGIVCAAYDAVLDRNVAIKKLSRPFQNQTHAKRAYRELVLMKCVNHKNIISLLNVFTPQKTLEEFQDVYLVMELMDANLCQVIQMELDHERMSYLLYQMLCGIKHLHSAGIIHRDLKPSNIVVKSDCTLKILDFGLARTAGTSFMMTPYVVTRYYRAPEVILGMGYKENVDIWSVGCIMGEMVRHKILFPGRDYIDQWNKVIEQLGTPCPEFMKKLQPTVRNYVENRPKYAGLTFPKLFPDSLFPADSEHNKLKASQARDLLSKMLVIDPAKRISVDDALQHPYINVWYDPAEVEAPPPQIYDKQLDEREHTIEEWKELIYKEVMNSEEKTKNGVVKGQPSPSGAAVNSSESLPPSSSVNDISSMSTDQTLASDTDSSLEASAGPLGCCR

In this test the target is JNK3 (Homo sapiens (Human), UniProt P53779). Nature of the test: Measurement of JNK3 enzyme activity (33P-ATP filter-binding). It is filed as biochemical. Particulars: human JNK3, ATP 10 μM, ATF2 3 μM. The method, then:
The changes in JNK3 enzyme activity resulting from being treated with the inventive imidazole derivative (Formula 1) shown in a following Table 1 were identified through IC50.
First of all, after a substrate was inserted into a prepared base reaction buffer solution (20 mM Hepes ([…]), 10 mM MgCl2, 1 mM EGTA, 0.02% Brij35, 0.02 mg/ml BSA, 0.1 mM Na3VO4, 2 mM DTT, 1% DMSO), a human JNK3 enzyme was added into a prepared substrate solution and then mixed together. As the substrate, ATP (10 μM) and ATF2 (3 μM) were used, among which the ATP was also used as a common substrate. Then, compounds of Examples 1-18 and 25-36, which were dissolved in 100% DMSO, were inserted into an enzyme reaction solution, and then cultured at room temperature for 20 minutes. Then, ^33P-ATP was inserted into the above reaction mixture solution to initiate a reaction, then cultured at room temperature for 2 hours, and then an enzyme activity was detected by means of a filter-binding method.
Particularly, after each 25 μl of the resulting solution was slowly spotted on P81 paper, it was inserted into a scintillation vial, and washed with 0.75% phosphoric acid four times for 10 minutes each, and with acetone once for 5 minutes. 5 ml of scintillation cocktail was inserted into the above scintillation vial and a resulting signal was read by means of a scintillation counter.
IC50 values of compounds of Examples 1-18 and 25-36 with regard to JNK3 enzyme activity were shown in a following Table 2.
Consider `N#CCc1cnc(-c2ccc3c(c2)OCO3)n1-c1ccnc(NC2CCCCC2)n1` [Example 7, 2-(2-(benzo[d][1,3]dioxol-5-yl)-1-(2-(cyclohexylamino)pyrimidine-4-yl)-1H-imidazole-5-yl)acetonitrile], for which the IC50 was above 100 nM.

With `N#CCc1cnc(-c2ccc(Cl)c(Cl)c2)n1-c1ccnc(NC2CCCCC2)n1` [Example 11, 2-(1-(2-(cyclohexylamino)pyrimidine-4-yl)-2-(3,4-dichlorophenphenyl)-1H-imidazole-5-yl)acetonitrile], the IC50 lay within 30 to 100 nM.

In turn, `N#CCc1cnc(-c2ccc3ccccc3n2)n1-c1ccnc(NC2CCCNC2)n1` (stereo not drawn) [Example 27, 2-(1-(2-(piperidine-3-ylamino)pyrimidine-4-yl)-2-(quinoline-2-yl)-1H-imidazole-5-yl)acetonitrile] came in with an IC50 of 30 to 100 nM.

For the compound `N#CCc1cnc(-c2ccc3occc3c2)n1-c1ccnc(NC2CCCN(C(=O)C3CC3)C2)n1` (stereo not drawn) [Example 37], the IC50 is below 30 nM.

For the compound `CC(O)CNc1nccc(-n2c(CC#N)cnc2-c2ccc(F)c(C(F)(F)F)c2)n1` (stereo not drawn) [Example 18, 2-(2-(4-fluoro-3-(trifluoromethyl)phenyl)-1-(2-(2-hydroxypropylamino)pyrimidine-4-yl)-1H-imidazole-5-yl)acetonitrile], the IC50 was 30 to 100 nM.

As to `N#CCc1cnc(-c2ccc(Cl)c(Cl)c2)n1-c1ccnc(NC2CCCN(C(=O)C3CC3)C2)n1` (stereo not drawn) [Example 35, 2-(1-(2-(1-(cyclopropanecarbonyl)piperidine-3-ylamino)pyrimidine-4-yl)-2-(3,4-dichlorophenyl)-1H-imidazole-5-yl)acetonitrile], the IC50 was in the range of 30 to 100 nM.

As for `N#CCc1cnc(-c2ccc(F)c(C(F)(F)F)c2)n1-c1ccnc(NC2CCCN(C(=O)C3CC3)C2)n1` (stereo not drawn) [Example 36, 2-(1-(2-(1-(cyclopropanecarbonyl)piperidine-3-ylamino)pyrimidine-4-yl)-2-(4-fluoro-3-(trifluoromethyl)phenyl)-1H-imidazole-5-yl)acetonitrile], the half-maximal inhibitory concentration (IC50) was in the range of 30 to 100 nM.

`N#CCc1cnc(-c2ccc(Cl)c(Cl)c2)n1-c1ccnc(NC2CCCNC2)n1` (stereo not drawn) [Example 29, 2-(2-(3,4-dichlorophenyl)-1-(2-(piperidine-3-ylamino)pyrimidine-4-yl)-1H-imidazole-5-yl)acetonitrile] showed a half-inhibitory concentration (IC50) of 30 to 100 nM.

Consider `CC(O)CNc1nccc(-n2c(CC#N)cnc2-c2ccc3ccccc3c2)n1` (stereo not drawn) [Example 16, 2-(1-(2-(2-hydroxypropylamino)pyrimidine-4-yl)-2-(naphthalene-2-yl)-1H-imidazole-5-yl)acetonitrile], for which the concentration for half-maximal inhibition (IC50) is 30 to 100 nM.

Consider `N#CCc1cnc(-c2ccc(Cl)c(Cl)c2)n1-c1ccnc(NC2CCOCC2)n1` [Example 5, 2-(2-(3,4-dichlorophenyl)-1-(2-(tetrahydro-2H-pyran-4-ylamino)pyrimidine-4-yl)-1H-imidazole-5-yl)acetonitrile], for which the concentration for half-maximal inhibition (IC50) was 30 to 100 nM.

`N#CCc1cnc(-c2ccc3ccccc3c2)n1-c1ccnc(NC2CCCNC2)n1` (stereo not drawn) [Example 28, 2-(2-(naphthalene-2-yl)-1-(2-(piperidine-3-ylamino)pyrimidine-4-yl)-1H-imidazole-5-yl)acetonitrile] had an IC50 below 30 nM.

`N#CCc1cnc(-c2ccc3c(c2)OCCO3)n1-c1ccnc(NC2CCOCC2)n1` [Example 2, 2-(2-(2,3-dihydrobenzo[b][1,4]dioxin-6-yl)-1-(2-(tetrahydro-2H-pyran-4-ylamino)pyrimidine-4-yl)-1H-imidazole-5-yl)acetonitrile] returned a concentration for half-maximal inhibition (IC50) above 100 nM.

For the compound `N#CCc1cnc(-c2ccc(F)c(C(F)(F)F)c2)n1-c1ccnc(NC2CCOCC2)n1` [Example 6, 2-(2-(4-fluoro-3-(trifluoromethyl)phenyl)-1-(2-(tetrahydro-2H-pyran-4-ylamino)pyrimidine-4-yl)-1H-imidazole-5-yl)acetonitrile], the IC50 is 30 to 100 nM.

As for `CC(O)CNc1nccc(-n2c(CC#N)cnc2-c2ccc3ccccc3n2)n1` (stereo not drawn) [Example 15, 2-(1-(2-(2-hydroxypropylamino)pyrimidine-4-yl)-2-(quinoline-2-yl)-1H-imidazole-5-yl)acetonitrile], the IC50 fell in the range of 30 to 100 nM.

`N#CCc1cnc(-c2ccc3c(c2)OCO3)n1-c1ccnc(NC2CCCNC2)n1` (stereo not drawn) [Example 25, 2-(2-(benzo[d][1,3]dioxol-5-yl)-1-(2-(piperidine-3-ylamino)pyrimidine-4-yl)-1H-imidazole-5-yl) acetonitrile] gave an IC50 above 100 nM.

As to `CC(O)CNc1nccc(-n2c(CC#N)cnc2-c2ccc(Cl)c(Cl)c2)n1` (stereo not drawn) [Example 17, 2-(2-(3,4-dichlorophenyl)-1-(2-(2-hydroxypropylamino)pyrimidine-4-yl)-1H-imidazole-5-yl)acetonitrile], the IC50 was 30 to 100 nM.

For the compound `N#CCc1cnc(-c2ccc3c(c2)OCCO3)n1-c1ccnc(NC2CCCCC2)n1` [Example 8, 2-(1-(2-(cyclohexylamino)pyrimidine-4-yl)-2-(2,3-dihydrobenzo[b][1,4]dioxin-6-yl)-1H-imidazole-5-yl)acetonitrile], the IC50 was above 100 nM.

The compound `N#CCc1cnc(-c2ccc3ccccc3n2)n1-c1ccnc(NC2CCCCC2)n1` [Example 9, 2-(1-(2-(cyclohexylamino)pyrimidine-4-yl)-2-(quinoline-2-yl)-1H-imidazole-5-yl)acetonitrile] came in with a concentration for half-maximal inhibition (IC50) above 100 nM.

With `N#CCc1cnc(-c2ccc3ccccc3c2)n1-c1ccnc(NC2CCOCC2)n1` [Example 4, 2-(2-(naphthalene-2-yl)-1-(2-(tetrahydro-2H-pyran-4-ylamino)pyrimidine-4-yl)-1H-imidazole-5-yl)acetonitrile], the IC50 is below 30 nM.

For the compound `N#CCc1cnc(-c2ccc3c(c2)OCCO3)n1-c1ccnc(NC2CCCNC2)n1` (stereo not drawn) [Example 26, 2-(2-(2,3-dihydrobenzo[b][1,4]dioxin-6-yl)-1-(2-(piperidine-3-ylamino)pyrimidine-4-yl)-1H-imidazole-5-yl)acetonitrile], the half-maximal inhibitory concentration (IC50) lay in the range of 30 to 100 nM.

`N#CCc1cnc(-c2ccc(F)c(C(F)(F)F)c2)n1-c1ccnc(NC2CCCCC2)n1` [Example 12, 2-(1-(2-(cyclohexylamino)pyrimidine-4-yl)-2-(4-fluoro-3-(trifluoromethyl)phenyl)-1H-imidazole-5-yl)acetonitrile] registered an IC50 above 100 nM.

Turning to `N#CCc1cnc(-c2ccc3ccccc3n2)n1-c1ccnc(NC2CCCN(C(=O)C3CC3)C2)n1` (stereo not drawn) [Example 33, 2-(1-(2-(1-(cyclopropanecarbonyl)piperidine-3-ylamino)pyrimidine-4-yl)-2-(quinoline-2-yl)-1H-imidazole-5-yl)acetonitrile], the IC50 is below 30 nM.

`N#CCc1cnc(-c2ccc3ccccc3n2)n1-c1ccnc(NC2CCOCC2)n1` [Example 3, 2-(2-(quinoline-2-yl)-1-(2-(tetrahydro-2H-pyran-4-ylamino)pyrimidine-4-yl)-1H-imidazole-5-yl) acetonitrile]: the IC50 lay in the range of 30 to 100 nM.

For the compound `N#CCc1cnc(-c2ccc(F)c(C(F)(F)F)c2)n1-c1ccnc(NC2CCCNC2)n1` (stereo not drawn) [Example 30, 2-(2-(4-fluoro-3-(trifluoromethyl)phenyl)-1-(2-(piperidine-3-ylamino)pyrimidine-4-yl)-1H-imidazole-5-yl)acetonitrile], the IC50 was in the range of 30 to 100 nM.

`CC(O)CNc1nccc(-n2c(CC#N)cnc2-c2ccc3c(c2)OCO3)n1` (stereo not drawn) [Example 13, 2-(2-(benzo[d][1,3]dioxol-5-yl)-1-(2-(2-hydroxypropylamino)pyrimidine-4-yl)-1H-imidazole-5-yl)acetonitrile] returned an IC50 of 30 to 100 nM.

Consider `CC(O)CNc1nccc(-n2c(CC#N)cnc2-c2ccc3c(c2)OCCO3)n1` (stereo not drawn) [Example 14, 2-(2-(2,3-dihydrobenzo[b][1,4]dioxin-6-yl)-1-(2-(2-hydroxypropylamino)pyrimidine-4-yl)-1H-imidazole-5-yl)acetonitrile], for which the IC50 was 30 to 100 nM.

`N#CCc1cnc(-c2ccc3c(c2)OCO3)n1-c1ccnc(NC2CCCN(C(=O)C3CC3)C2)n1` (stereo not drawn) [Example 31, 2-(2-(benzo[d][1,3]dioxol-5-yl)-1-(2-(1-(cyclopropanecarbonyl)piperidine-3-ylamino)pyrimidine-4-yl)-1H-imidazole-5-yl)acetonitrile] came in with an IC50 of 30 to 100 nM.

In the case of `N#CCc1cnc(-c2ccc3c(c2)OCCO3)n1-c1ccnc(NC2CCCN(C(=O)C3CC3)C2)n1` (stereo not drawn) [Example 32, 2-(1-(2-(1-(cyclopropanecarbonyl)piperidine-3-ylamino)pyrimidine-4-yl)-2-(2,3-dihydrobenzo[b][1,4]dioxin-6-yl)-1H-imidazole-5-yl)acetonitrile], the IC50 was 30 to 100 nM.

`N#CCc1cnc(-c2ccc3c(c2)OCO3)n1-c1ccnc(NC2CCOCC2)n1` [Example 1, 2-(2-(benzo[d][1,3]dioxol-5-yl)-1-(2-(tetrahydro-2H-pyran-4-ylamino)pyrimidine-4-yl)-1H-imidazole-5-yl)acetonitrile] returned an IC50 of 30 to 100 nM.

The compound `N#CCc1cnc(-c2ccc3ccccc3c2)n1-c1ccnc(NC2CCCCC2)n1` [Example 10, 2-(1-(2-(cyclohexylamino)pyrimidine-4-yl)-2-(naphthalene-2-yl)-1H-imidazole-5-yl)acetonitrile] showed an IC50 of 30 to 100 nM.

What is called IC50 is the midpoint of a concentration-inhibition curve. Low values mean greater potency, high ones weaker potency.
